Experimental data reported in paper PMC10950880, “The RsfSR two-component system regulates SigF function by monitoring the state of the respiratory electron transport chain in Mycobacterium smegmatis” (The Journal of Biological Chemistry, 2024).

Experiments:
[1] = target: T1, RsfSTr (truncated RsfS, MSMEG_6130) (Mycolicibacterium smegmatis, UniProt A0R5B3); experiment: autophosphorylation and phosphotransfer to RsfR, Phos-tag SDS-PAGE; assay type: biochemical; details: 1 mM ATP, 300 mM Tris-HCl pH 8, 50 mM KCl, 10 mM MgCl2, 30 C; covalent
T1 construct: kinase domain only (amino acids 190-525), lacks CHASE3 and N-terminal region; C-terminal His6 kept; from E. coli BL21; partially purified
T1 sequence (A0R5B3 entry or part of it): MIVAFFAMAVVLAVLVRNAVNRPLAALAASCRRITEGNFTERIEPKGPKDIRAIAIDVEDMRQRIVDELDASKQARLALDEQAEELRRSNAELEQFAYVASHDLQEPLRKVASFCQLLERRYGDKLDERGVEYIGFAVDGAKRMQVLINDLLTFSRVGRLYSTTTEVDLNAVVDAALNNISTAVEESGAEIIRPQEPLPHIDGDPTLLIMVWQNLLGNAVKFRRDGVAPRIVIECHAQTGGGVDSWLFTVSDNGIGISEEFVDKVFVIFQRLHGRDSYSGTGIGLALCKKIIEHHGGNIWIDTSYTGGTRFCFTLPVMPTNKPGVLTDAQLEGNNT

RsfR (MSMEG_6131) = target: T2, RsfR (MSMEG_6131) (Mycolicibacterium smegmatis, UniProt A0R5B4); experiment: phosphorylation of RsfR by acetyl phosphate (Phos-tag SDS-PAGE); RsfR then tested on P-RsfB; assay type: biochemical; details: 40 mM acetyl phosphate, 300 mM Tris-HCl pH 8.0, 50 mM KCl, 10 mM MgCl2, no ATP, 30 C; phosphodonor, covalent
T2 construct: C-terminal His6 kept; from E. coli BL21 (DE3), pT7-7rsfR
T2 sequence (A0R5B4 1-402): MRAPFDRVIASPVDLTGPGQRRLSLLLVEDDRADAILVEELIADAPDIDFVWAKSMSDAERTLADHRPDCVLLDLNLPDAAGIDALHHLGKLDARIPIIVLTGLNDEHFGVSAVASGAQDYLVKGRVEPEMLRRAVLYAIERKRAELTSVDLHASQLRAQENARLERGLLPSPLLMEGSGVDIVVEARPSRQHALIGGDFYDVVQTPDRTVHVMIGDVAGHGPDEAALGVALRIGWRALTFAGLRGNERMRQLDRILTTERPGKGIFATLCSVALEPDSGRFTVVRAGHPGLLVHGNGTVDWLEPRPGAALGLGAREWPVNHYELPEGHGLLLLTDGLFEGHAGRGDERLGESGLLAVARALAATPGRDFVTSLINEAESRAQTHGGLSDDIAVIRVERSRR

## Nc1ncnc2c1ncn2[C@@H]1O[C@H](COP(=O)(O)OP(=O)(O)OP(=O)(O)O)[C@@H](O)[C@H]1O [ATP]
[1]
  autophosphorylation and phosphotransfer to RsfR, Phos-tag SDS-PAGE: RsfSTr was autophosphorylated in the reaction mixture

## CC(=O)OP(=O)(O)O [acetyl phosphate]
RsfR (MSMEG_6131)
  RsfR phosphorylation by acetyl phosphate: Acetyl phosphate phosphorylated purified RsfR less efficiently than RsfSTr
